The values that follow come from patent publication US12233106B2, “C-type natriuretic peptide variants to treat skeletal dysplasia in children” (priority 2021, dated 2025).

The conditions of series [1]: in vivo.
The next series is described as follows: clinical. The settings on record: human, in vivo, 15 ug/kg. The source says:
Primary endpoints include length/height Z-score at Week 52 and evaluation of any adverse events. Secondary endpoints include AGV at Week 52, Bilateral X-rays of lower extremities, Lumbar spine X-rays, DXA of whole body and spine, AUC0-∞, AUC0-t, Cmax, Tmax, t1/2, CL/F, VZ/F, Hip monitoring clinical assessments, Bayley-III, WeeFIM, and ITQOL scores, CBCL scores, Anti-vosoritide total antibody (TAb), Anti-vosoritide antibody cross-reactivity with endogenous CNP, ANP, and BNP (TAb), Anti-vosoritide neutralizing antibody (NAb), CXM and bone-specific alkaline phosphatase, Collagen type II (CTX-II), Cyclic guanosine monophosphate (cGMP), anthropometric measurements, upper to lower body segment ratio, upper arm length to lower arm (forearm) length ratio, upper leg length (thigh) to knee to heel length ratio, upper leg length (thigh) to tibial length ratio, and arm span to standing height ratio.
The pharmacokinetics of vosoritide in the different populations of patients was also analyzed for any change in PK (Table 4). PD information (plasma cGMP and serum CXM) in 4 sentinel subjects and 33 randomized subjects (aged≥24 to <60 months) receiving 30 μg/kg vosoritide was available.

For series [2] the following is noted: normal human; cited from earlier work.

Usually CL/F stands for clearance divided by bioavailability, as obtained after extravascular dosing. What is called Vd/F is the apparent distribution volume after extravascular dosing. What is called Tmax is the time at which the peak concentration occurs. What is called Cmax is the maximum level reached in the sampled fluid or tissue. A word on the half-life: it is how long it takes for the measured level to halve. A higher half-life goes with slow decline. For the molecule `CC[C@H](C)[C@@H]1NC(=O)[C@H](CCCNC(=N)N)NC(=O)[C@H](CC(=O)O)NC(=O)[C@H](CC(C)C)NC(=O)[C@H](CCCCN)NC(=O)[C@H](CC(C)C)NC(=O)CNC(=O)[C@H](Cc2ccccc2)NC(=O)[C@@H](NC(=O)CNC(=O)[C@H](CCCCN)NC(=O)[C@H](CO)NC(=O)[C@H](CC(C)C)NC(=O)CNC(=O)[C@H](CCCCN)NC(=O)[C@H](CCCCN)NC(=O)[C@H](CC(N)=O)NC(=O)[C@H](C)NC(=O)CNC(=O)[C@H](CCCCN)NC(=O)[C@H](Cc2ccc(O)cc2)NC(=O)[C@H](CCCCN)NC(=O)[C@H](CCCNC(=N)N)NC(=O)[C@H](C)NC(=O)[C@H](CC(N)=O)NC(=O)[C@@H]2CCCN2C(=O)[C@H](Cc2c[nH]cn2)NC(=O)[C@H](CCC(=O)O)NC(=O)[C@H](CCC(N)=O)NC(=O)CNC(=O)[C@@H]2CCCN2)CSSC[C@@H](C(=O)O)NC(=O)CNC(=O)[C@H](CC(C)C)NC(=O)CNC(=O)[C@H](CO)NC(=O)[C@H](CCSC)NC(=O)[C@H](CO)NC(=O)CNC1=O` [vosoritide], in series [1], the “Adverse event of grade two or higher related to the study drug (CTCAE v5.0)” value was “No patient”. Further, the CL/F in the series “clinical” (Mean CL/F, range over visits) is 82.1 to 150 mL/min/kg. In addition, the Vd/F in “clinical” (Mean Vz/F, range over visits) was 2.65 to 3.8 L/kg. The Tmax in “clinical” (Median Tmax, range over visits) is 14 to 15.5 min; in “clinical” (sc, tmax, median [minimum, maximum]) it was 14 min. The Cmax in “clinical” (mean Cmax, range over visits) was 3.81 to 6.86 ng/mL. Moreover, the half-life in “clinical” (mean t1/2, range over visits) was 15.2 to 29.3 min.
For the molecule “CNP: mature 22-amino acid C-type natriuretic peptide (wild type CNP-22)”, the “in vivo (plasma) half-life” value in series [2] was 2.6 min.
